# From patent US20100004248A1, “Use of a Nitric Oxide Synthase Modulator for the Treatment of Cardiac Indications” (priority 2005, published 2010)
# How the values were obtained:
# NOS = target: T1, NOS (Mus musculus, UniProt P70313); assay: Luminol chemiluminescence of heart tissue extracts with or without co-incubation with L-NAME (NOS-derived O2−); format: biochemical; settings: 1 mM co-incubation
# T1 construct: from tissue; host or cells: mouse left ventricular tissue homogenate
# T1 sequence (P70313 2-1202): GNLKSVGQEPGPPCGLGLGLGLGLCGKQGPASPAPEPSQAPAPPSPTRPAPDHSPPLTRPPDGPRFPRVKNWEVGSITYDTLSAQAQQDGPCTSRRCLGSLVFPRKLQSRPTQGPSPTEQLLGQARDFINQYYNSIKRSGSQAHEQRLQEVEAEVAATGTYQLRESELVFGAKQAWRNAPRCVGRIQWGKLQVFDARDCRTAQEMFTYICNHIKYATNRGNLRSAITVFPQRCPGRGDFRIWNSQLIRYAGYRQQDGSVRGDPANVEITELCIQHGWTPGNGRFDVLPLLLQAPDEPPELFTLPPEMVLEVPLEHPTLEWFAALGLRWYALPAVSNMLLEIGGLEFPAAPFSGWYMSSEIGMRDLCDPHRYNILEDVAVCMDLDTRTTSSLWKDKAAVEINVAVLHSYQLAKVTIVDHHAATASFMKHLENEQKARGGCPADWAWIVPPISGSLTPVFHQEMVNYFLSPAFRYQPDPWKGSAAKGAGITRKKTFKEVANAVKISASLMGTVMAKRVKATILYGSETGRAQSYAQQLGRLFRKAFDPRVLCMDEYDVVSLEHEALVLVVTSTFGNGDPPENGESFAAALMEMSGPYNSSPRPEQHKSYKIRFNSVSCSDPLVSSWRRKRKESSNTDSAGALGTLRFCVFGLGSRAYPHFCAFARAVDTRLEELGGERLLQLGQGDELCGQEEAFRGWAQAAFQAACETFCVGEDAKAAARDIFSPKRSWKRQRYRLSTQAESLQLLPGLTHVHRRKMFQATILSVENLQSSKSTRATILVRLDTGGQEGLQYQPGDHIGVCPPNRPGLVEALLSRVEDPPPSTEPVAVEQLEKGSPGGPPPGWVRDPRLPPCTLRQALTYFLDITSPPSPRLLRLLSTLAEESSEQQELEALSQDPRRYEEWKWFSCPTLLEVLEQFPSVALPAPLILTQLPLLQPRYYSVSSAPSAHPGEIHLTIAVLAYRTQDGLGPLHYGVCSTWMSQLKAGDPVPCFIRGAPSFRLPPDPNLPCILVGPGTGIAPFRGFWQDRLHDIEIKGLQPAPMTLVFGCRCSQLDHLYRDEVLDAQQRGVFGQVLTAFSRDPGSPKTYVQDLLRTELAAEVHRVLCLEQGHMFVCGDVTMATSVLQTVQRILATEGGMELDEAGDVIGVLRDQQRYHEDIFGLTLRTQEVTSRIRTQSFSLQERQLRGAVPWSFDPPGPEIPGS
# Method: Given the decline in NO-synthetic activity, it was next tested whether NOS-derived O2^− increased with TAC. Tissue extracts were subjected to luminol chemiluminescence assay with or without co-incubation with the NOS inhibitor L-NAME (1 mM). The relative contribution of NOS was minimal under basal conditions, but rose markedly (˜50%) after 3- and 9-weeks TAC (FIG. 6D). Control data in NOS3^−/− hearts confirmed this to be from NOS3 and not the other NOS isoforms.
# Reactive oxygen species generation was examined by several independent methods. Superoxide production in left ventricular tissue homogenates was determined by luminol-enhanced chemiluminescence (EMD Biosciences). Flash frozen myocardium was homogenized in iced PBS buffer, centrifuged, and the precipitate re-suspended in assay buffer to a final concentration of 100 μM luminol following manufacturer's instructions. Phorbol-12-myristate-13-acetate or other oxidase stimulators were not used in the assay. Data were normalized by sample weight. […] Nitrotyrosine was also quantitatively assessed by ELISA assay (Oxis International).
# [1] = test system: intact heart, beta-adrenergic stimulation by ISO; assay: Contractility response of intact heart to isoproterenol (ISO); format: in vivo, mouse
# Description: Regulation of acute beta-adrenergic stress by PDE5a inhibition (resulting in a rise in cGMP and activation of protein kinase G) requires the activity of nitric oxide synthase (NOS). […] This can be offset by chronic distal activation of the NO target protein soluble guanylate cyclase 9sGC). At the left are bars depicting the contractility response of an intact heart to ISO before and after co-administration of SIL. The ISO response is normally blunted by nearly 80%. The middle bars show data from mice with NOS inhibited by L-NAME (1 mg/L in drinking water). […] However, if one continues to treat hearts with the soluble guanylate cyclase activator (BAY 41-8543) for a week-all the while continuing NOS inhibition with L-NAME, the ability of SIL to suppress adrenergic stimulation is restored.
# [2] = test system: C57/BL6 WT mice subjected to TAC pressure overload; assay: Body weight and heart weight in mice subjected to transverse aortic constriction (TAC); format: in vivo, mouse; settings: TAC 3 weeks, oral co-treatment 1 mg/g food, mean ± sem
# Description: Male NOS3 null mice (NOS3^−/−) and C57/BL6 WT controls (8-11 weeks, Jackson Labs, Bar Harbor, Me., USA) were used. Pressure overload was produced by transverse aorta constriction (TAC). Briefly, The aortic arch was isolated by entering the extrapleural space between the second and third rib, and afterwards the transverse aorta was isolated between the right and left carotid arteries. A 7-0 prolene suture ligature was tied around the transverse aorta against a 27-gauge needle to produce a 65-70% constriction after the removal of the needle. After closing the chest, animals were extubated, and a subcutaneous injection of morphine sulphate 0.2 mg, was administered before they returned to their cages. Animal's ventilatory and circulatory status was checked every 30 minutes during the first 2 hours. Sham-operated mice underwent the same operation except for aortic constriction. […] Animals were randomized to receive placebo or BH4 (120 mg/kg/d) for the next 5 weeks. At the end of the study, i.e. at 9 weeks, animal were sacrificed to receive tissue or underwent in vivo PV-loop analysis. […] Control mice were subject to sham operations, and animals were studied 3-9 weeks following surgery. […]
# [3] = test system: C57/BL6 WT mice subjected to TAC pressure overload; assay: In vivo hemodynamics, PV loop analysis, in TAC mice; design: species or system mouse; settings: TAC 3 weeks, oral co-treatment 1 mg/g food, mean ± sem
# Description: (§1) Male NOS3 null mice (NOS3^−/−) and C57/BL6 WT controls (8-11 weeks, Jackson Labs, Bar Harbor, Me., USA) were used. Pressure overload was produced by transverse aorta constriction (TAC). Briefly, The aortic arch was isolated by entering the extrapleural space between the second and third rib, and afterwards the transverse aorta was isolated between the right and left carotid arteries. A 7-0 prolene suture ligature was tied around the transverse aorta against a 27-gauge needle to produce a 65-70% constriction after the removal of the needle. After closing the chest, animals were extubated, and a subcutaneous injection of morphine sulphate 0.2 mg, was administered before they returned to their cages. Animal's ventilatory and circulatory status was checked every 30 minutes during the first 2 hours. Sham-operated mice underwent the same operation except for aortic constriction. […] Animals were randomized to receive placebo or BH4 (120 mg/kg/d) for the next 5 weeks. At the end of the study, i.e. at 9 weeks, animal were sacrificed to receive tissue or underwent in vivo PV-loop analysis. […] Control mice were subject to sham operations, and animals were studied 3-9 weeks following surgery. An additional group of wild-type animals were subjected to TAC for 3 weeks while co-treated with oral tetrahydrobiopterin (BH4) (Sigma-Aldrich) (1 mg/g food) mixed in their rodent chow, providing 5 mg/day based on 4-6 g daily diet^8.
# (§2) Two different BH4 treatment protocols are used. For experiments related to FIGS. 1-7, where prevention of cardiac indications is described BH4 is provided orally as a treatment starting 2 days after TAC surgery (once mice are again eating oral diet). For those figures related to treatment of established cardiac indications, FIGS. 8-23, BH4 is provided orally but this is delayed for 4 weeks to establish substantial cardiac hypertrophy, remodeling, and NOS-uncoupling. Then the treatment is provided for the remaining 5 week period.
# In vivo left ventricular (LV) function was assessed by pressure-volume catheter^12,13. Mice were anesthetized with 1-2% isoflurane, urethane ([…], i.p.), etomidate (5-10 mg/kg, i.p.), and morphine (1-2 mg/kg, i.p.), underwent tracheostomy, and were ventilated with 6-7 μL/g tidal volume and 130 breaths/min. Volume expansion (12.5% human albumin, 50-100 μL over 5 min) was provided through a 30 G cannula via the right external jugular vein. The left ventricular apex was exposed through an incision between the 7-8th rib, and a catheter, specifically a 1.4 Fr PV catheter (SPR 839, Millar Instruments, Inc.), was advanced through the apex to lie along the longitudinal axis. Absolute volume was calibrated, and pressure-volume data was measured at steady state and during transient reduction of venous return as reported^13
# [4] = test system: C57/BL6 WT mice subjected to TAC pressure overload; assay: Transthoracic echocardiography in conscious TAC mice; format: in vivo, mouse
# Description: as §1, §2
# For folate studies, C57/BL6 WT were treated with folate (10 mg/kg/day) or with placebo for a 9 week period during which time the hearts were exposed to TAC.
# In vivo cardiac morphology was assessed by transthoracic echocardiography (Acuson Sequoia C256, 13 MHz transducer, Siemens) in conscious mice. M-mode left ventricular (LV) end-systolic and end-diastolic dimensions were averaged from 3-5 beats. Left ventricular ejection fraction (LVEF) and percent fractional shortening (% FS) were calculated as: LVEF=[(LVEDD)^3-(LVESD)^3]/(LVEDD)^3×100; % FS=(LVEDD−LVESD)/LVEDD×100. Wall thickness of lateral freewall and intraventricular septum were averaged. Studies and analysis were performed blinded to heart condition.
# [5] = test system: Adult myocytes isolated from wild-type C57/B16 mouse hearts; assay: Sarcomere shortening of isolated adult myocytes exposed to isoproterenol; format: cell-based; settings: myocytes from 3-4 weeks TAC hearts first treated with the anti-oxidant
# [6] = healthy subjects, cited from earlier work
# [7] = WT mice, TAC 3 weeks, oral co-treatment 1 mg/g food, mean ± sem
# [8] = TAC up to 9 weeks, folate 10 mg/kg/day vs placebo, p<0.05
smiles,measurement,setting,value
COC(=O)[C@@H](N)CCCNC(=N)N[N+](=O)[O-] [L-NAME],inhibition of luminol chemiluminescence,NOS; 3 weeks and 9 weeks WT-TAC heart lysates,~50%
same,inhibition of luminol chemiluminescence,NOS; baseline (sham) heart lysates,< 15%
Nc1nc(-c2nn(Cc3ccccc3F)c3ncccc23)nc(N)c1N1CCOCC1 [BAY 41-8543],restoration of the ability of SIL to suppress ISO stimulated contractility,"[1]; acute administration of sGC activator, L-NAME for 1 week",does not reverse this
same,restoration of the ability of SIL to suppress adrenergic stimulation,[1]; sGC activator for a week while continuing L-NAME,restored
"C[C@H](O)[C@H](O)[C@H]1CNc2nc(N)[nH]c(=O)c2N1 [BH4, (6R)-5,6,7,8-tetrahydrobiopterin]",Heart Weight (HW),[2],170.3 ± 3.9 mg
same,Arterial Elastance,[3],10.6 ± 0.7 mmHg/μL
same,Ejection Fraction,[3],78.4 ± 5.8 %
same,End-diastolic Volume,[3],20.5 ± 1.9 µL
same,End-systolic Elastance,[3],115.1 ± 9.6 mmHg/μL · g
same,End-systolic Volume,[3],4.8 ± 1.7 µL
same,Heart RateR,[3],603.3 ± 22.9 min⁻¹
same,LV Systolic Pressure,[3],193.0 ± 1.7 mmHg
same,Peak Power Index,[3],75.5 ± 10.5 mmHg/s
same,Tau,[3],3.5 ± 0.2 ms
same,dPdtmn,[3],−15743 ± 1325 mmHg/s
same,dPdtmx,[3],17003 ± 1125 mmHg/s
same,Fractional Shortening,[4]; [7],61.7 ± 1.7 %
same,LV diameter Diastole,[4]; [7],2.87 ± 0.06 mm
same,LV diameter Systole,[4]; [7],1.12 ± 0.06 mm
same,Wall thickness,[4]; [7],1.09 ± 0.03 mm
N[C@@H](CCC(=O)N[C@@H](CS)C(=O)NCC(=O)O)C(=O)O [reduced glutathione],capacity of PDE5a inhibition to blunt the beta-adrenergic response after anti-oxidant pre-treatment,[5],recovered
"CN1CC(=O)N2[C@H](c3ccc4c(c3)OCO4)c3[nH]c4ccccc4c3C[C@@H]2C1=O [Tadalafil, tadalafil]",time of peak plasma concentration post-dose,[6]; oral 20 mg dose,two
same,apparent oral clearance (CL/F),[6]; oral,2.48 L/h
same,mean elimination half-life,[6]; oral,about 17.5 h
"Nc1nc2ncc(CNc3ccc(C(=O)N[C@@H](CCC(=O)O)C(=O)O)cc3)nc2c(=O)[nH]1 [folate, folic acid]",LV mass,[4]; [8],reduced
same,cardiac dilation,[4]; [8],diminished
same,Ejection Fraction,"[4]; TAC up to 9 weeks, folate 10 mg/kg/day vs placebo, p=0.05",significantly improved
